From PMC8175350, “Drug repurposing screens identify chemical entities for the development of COVID-19 interventions” (Nature Communications, 2021)
pEC50: −log10 of the molar value. Where a name gives a salt, the structure may show the parent alone. Read-outs that look alike come from different tables or passages of the source.

What was measured:
SARS-CoV-2 [1] = assay: microbe, parasite or virus in culture; format: cell-based
Calu-3 cells [2] = assay: cells; conditions: Homo sapiens; for Emax: Calu-3, 48 h; for EC50: Calu-3, read-out: Calu-3 cell count EC50 GeoMean (µM), geometric mean of replicates
SARS-CoV-2 [3] = assay: microbe, parasite or virus in culture; format: cell-based; conditions: for Emax: Severe acute respiratory syndrome coronavirus 2, Calu-3, 48 h
HeLa-ACE2 cells [4] = assay: cells; conditions: Homo sapiens; for EC50: HeLa-ACE2, read-out: HeLa-ACE2 cell count EC50 GeoMean (µM), geometric mean of replicates
in vitro = conditions: human
Calu-3 cells [5] = tested on: Calu-3 cells
[6] = Uninfected HeLa-ACE2 24 h live/dead cytotoxicity counter screen; format: cell-based, human; conditions: human, uninfected HeLa-ACE2 cells
HeLa-ACE2 cells [7] = assay: as above; format: cell-based, human; conditions: for HeLa-ACE2 uninfected cytotoxicity Sinf Average (%): Sinf average of the curves
SARS-CoV-2 [8] = assay: microbe, parasite or virus in culture; format: cell-based; conditions: HeLa-ACE2
[9] = read-out: Calu-3 cell count Sinf Average
[10] = curve-fit effect at infinite concentration, average, read-out: Calu-3 CoV-2 Sinf Average
[11] = Severe acute respiratory syndrome coronavirus 2, Calu-3, unrounded geometric mean, read-out: Calu-3 CoV-2 EC50 GeoMean
[12] = Calu-3 uninfected cytotoxicity CC50 GeoMean
[13] = unrounded geometric mean, read-out: HeLa-ACE2 uninfected cytotoxicity CC50 GeoMean
[14] = Severe acute respiratory syndrome coronavirus 2, HeLa-ACE2, unrounded geometric mean, read-out: HeLa-ACE2 CoV-2 EC50 GeoMean
[15] = Calu-3, read-out: Calu-3 cell count EC50 GeoMean, unrounded geometric mean
[16] = HeLa-ACE2, read-out: HeLa-ACE2 cell count EC50 GeoMean, unrounded geometric mean
[17] = Severe acute respiratory syndrome coronavirus 2, HeLa-ACE2, geometric mean of replicates, read-out: HeLa-ACE2 CoV-2 EC50 GeoMean
[18] = read-out: Calu-3 cell count Sinf Average (%)
[19] = Sinf average of the curves, read-out: Calu-3 CoV-2 Sinf Average (%)
[20] = Severe acute respiratory syndrome coronavirus 2, Calu-3, geometric mean of replicates, read-out: Calu-3 CoV-2 EC50 GeoMean
[21] = Calu-3 uninfected cytotoxicity CC50 GeoMean (µM)
[22] = geometric mean of replicates, read-out: HeLa-ACE2 uninfected cytotoxicity CC50 GeoMean
[23] = Severe acute respiratory syndrome coronavirus 2, HeLa-ACE2, reconfirmed hits, read-out: HeLa-ACE2 SARS-CoV-2 EC50
[24] = Severe acute respiratory syndrome coronavirus 2, Calu-3, reconfirmed hits, read-out: Calu-3 SARS-CoV-2 EC50
[25] = reconfirmed hits, read-out: HeLa-ACE2 Uninf. cells CC50

Row | SMILES | pEC50 (SARS-CoV-2 [1]; [17]) | Emax (Calu-3 cells [2]; [18]) [%] | EC50 (Calu-3 cells [2]) [µM] | Emax (SARS-CoV-2 [3]; [19]) [%] | pEC50 (SARS-CoV-2 [3]; [20]) | EC50 (HeLa-ACE2 cells [4]) [µM] | CC50 at 48 h (in vitro; [21]) [µM] | uninfected Calu-3 CC50 [μM] (Calu-3 cells [5]) | CC50 at 24 h [6, 22] [µM] | Calu-3 uninfected cytotoxicity Sinf Average (%) (Calu-3 cells [5]; human, 48 h) | HeLa-ACE2 uninfected cytotoxicity Sinf Average (%) (HeLa-ACE2 cells [7]) | also measured
1 | CCc1ccc(C2=CC(C)(C)Sc3ccc(C#Cc4ccc(C(=O)O)cc4)cc32)cc1 [AGN-194310] | – | – | – | – | – | – | – | – | – | – | – | pEC50 (SARS-CoV-2 [1]; Severe acute respiratory syndrome coronavirus 2, HeLa-ACE2, read-out: HeLa-ACE2 CoV-2 EC50 GeoMean): < 5.02; Emax (Calu-3 cells [2]; [9]): 100%; pEC50 (Calu-3 cells [2]; Calu-3, read-out: Calu-3 cell count EC50 GeoMean): < 5.11; Emax (SARS-CoV-2 [3]; [10]): 85%; pEC50 (SARS-CoV-2 [3]; [11]): 6.22; pEC50 (HeLa-ACE2 cells [4]; HeLa-ACE2, read-out: HeLa-ACE2 cell count EC50 GeoMean): < 5.02; CC50 (in vitro; [12]): > 29.9 µM; uninfected Calu-3 CC50 (Calu-3 cells [5]): > 29.867 ×÷ 1 (n=3) μM; Calu-3 uninfected cytotoxicity Sinf Average (Calu-3 cells [5]; human): -100%; CC50 at 24 h [6, 13]: > 39.8 µM
2 | CN(C)C(=O)COC(=O)Cc1ccc(OC(=O)c2ccc(NC(=N)N)cc2)cc1 [Camostat mesylate] | – | – | – | – | – | – | – | – | – | – | – | pEC50 (SARS-CoV-2 [1]; [14]): < 5.02; Emax (Calu-3 cells [2]; [9]): 78%; pEC50 (Calu-3 cells [2]; [15]): 7.04; Emax (SARS-CoV-2 [3]; [10]): 89%; pEC50 (SARS-CoV-2 [3]; [11]): 7.27; pEC50 (HeLa-ACE2 cells [4]; [16]): < 5.02; CC50 (in vitro; Calu-3 uninfected cytotoxicity CC50 GeoMean, unrounded geometric mean): > 29.9 µM; CC50 at 24 h [6, 13]: > 39.8 µM
3 | NC(N)=Nc1ncc(Cl)c2ccc(-c3cccc(C(=O)O)c3)cc12 [UK-356202] | < 5.02 | 98 | > 7.28 | 85 | 5.72 | > 9.59 | > 29.9 | > 29.875 ×÷ 1 (n=2) μM | > 39.8 | – | – | –
4 | N#Cc1cccc(C(C(=O)NCC(c2ccccc2)c2ccccc2)N(CCc2c[nH]cn2)C(=O)c2ccccc2C(=O)c2ccccc2)c1 (stereo not drawn) [GENZ-29155] | < 5.02 | – | > 9.98 | 79 | < 5.33 | > 9.59 | > 29.9 | > 29.867 ×÷ 1 (n=3) μM | > 38.5 | 0 | -67 | HeLa-ACE2 CoV-2 Sinf Average (%) (SARS-CoV-2 [1]; Sinf average of the curves): -67%
5 | CSc1ccc(CN2CCCC(Nc3ccc4[nH]ncc4c3)C2)cc1 (stereo not drawn) [INS-117548] | < 5.02 | 55 | 0.31 | 77 | < 5.45 | > 9.59 | > 29.9 | > 29.875 ×÷ 1 (n=2) μM | > 39.8 | -92 | -100 | –
6 | O[C@@H]1CO[C@H]2[C@@H]1OC[C@H]2Oc1nc2nc(-c3ccc(-c4ccccc4)cc3)c(Cl)cc2[nH]1 [MK-8722] | < 5.02 | 100 | > 5.66 | 100 | 5.56 | > 9.59 | > 29.9 | > 29.867 ×÷ 1 (n=3) μM | > 37.4 | -95 | -100 | –
7 | CNC(=O)n1ccc2cc(Oc3ccnc(NC(=O)c4ccc(C5CCN(CCO)CC5)cc4)c3)c(OCCOC)cc21 [E-7090] | – | – | – | – | – | – | – | – | – | – | – | Emax (SARS-CoV-2 [1]; Severe acute respiratory syndrome coronavirus 2, HeLa-ACE2, 24 h, curve-fit effect at infinite concentration, average, read-out: HeLa-ACE2 CoV-2 Sinf Average): 100%; pEC50 (SARS-CoV-2 [1]; [14]): 5.58; Emax (Calu-3 cells [2]; [9]): 73%; pEC50 (Calu-3 cells [2]; [15]): < 5.59; Emax (SARS-CoV-2 [3]; [10]): 62%; pEC50 (SARS-CoV-2 [3]; [11]): 6.12; pEC50 (HeLa-ACE2 cells [4]; [16]): < 5.02; CC50 at 48 h (in vitro; [12]): 15 µM; uninfected Calu-3 CC50 (Calu-3 cells [5]): 14.98 ×÷ 1.32 (n=3) μM; Calu-3 uninfected cytotoxicity Sinf Average (Calu-3 cells [5]; human, 48 h): -97%; HeLa-ACE2 uninfected cytotoxicity Sinf Average (HeLa-ACE2 cells [7]; curve-fit effect at infinite concentration, average): -100%; CC50 at 24 h [6, 13]: 21.2 µM
8 | C=CC(=O)Nc1cc(Nc2nccc(-c3cn(C)c4ccccc34)n2)c(OC)cc1N(C)CCN(C)C [Osimertinib] | – | – | – | – | – | – | – | – | – | – | – | SI in Calu-3 (SARS-CoV-2 [3]; CC50/EC50): < 2; EC50 ratio between the standard 24 h and the TOA assay (SARS-CoV-2 [8]): > 8
9 | CC(=O)N1C[C@H](O)C[C@H]1C(=O)N[C@@H](CCCNC(=N)N)C(=O)c1nc2ccccc2s1 [RWJ-56423] | < 5.02 | 100 | 2.85 | 89 | 5.91 | > 9.59 | > 29.9 | > 29.867 ×÷ 1 (n=3) μM | > 39.8 | – | – | pEC50 (SARS-CoV-2 [1]; [23]): < 5.02; pEC50 (SARS-CoV-2 [3]; [24]): 5.91; CC50 at 48 h (in vitro; Calu-3 Uninf. cells CC50 (µM)): > 30 µM; CC50 at 24 h [6, 25]: > 40 µM
10 | CC(=N)N1CCC(Oc2ccc(N(Cc3ccc4ccc(C(=N)N)cc4c3)S(=O)(=O)CC(=O)O)cc2)CC1 [YM 60828] | < 5.02 | 100 | 6.81 | – | 5.50 | > 9.59 | > 29.9 | > 29.867 ×÷ 1 (n=3) μM | > 39.8 | – | – | –
11 | N=C(N)c1ccc2cc(OC(=O)c3ccc(CNC(=O)CCCC(=O)O)o3)ccc2c1 [TO-195] | < 5.19 | 84 | 1.16 | 91 | 6.18 | > 9.59 | > 29.9 | > 29.867 ×÷ 1 (n=3) μM | > 39.8 | -100 | – | pEC50 (SARS-CoV-2 [1]; [23]): < 5.19; pEC50 (SARS-CoV-2 [3]; [24]): 6.18; CC50 at 48 h (in vitro; Calu-3 Uninf. cells CC50 (µM)): > 30 µM; CC50 at 24 h [6, 25]: > 40 µM
12 | N=C(N)Nc1ccc(C(=O)Oc2ccc(S(N)(=O)=O)cc2)cc1 [Ono-3307] | < 5.02 | 99 | 3.58 | 96 | 5.80 | > 9.59 | > 29.9 | > 29.867 ×÷ 1 (n=3) μM | > 39.8 | – | – | pEC50 (SARS-CoV-2 [1]; [23]): < 5.02; pEC50 (SARS-CoV-2 [3]; [24]): 5.80; CC50 at 48 h (in vitro; Calu-3 Uninf. cells CC50 (µM)): > 30 µM; CC50 at 24 h [6, 25]: > 40 µM
13 | CCCCCC[C@H]1C(=O)O[C@H](C)[C@H](NC(=O)c2cccc(NC=O)c2O)C(=O)O[C@@H](C)[C@@H]1OC(=O)CC(C)C [Antimycin A] | < 5.02 | 48 | 0.22 | 93 | > 7.56 | > 9.59 | – | – | > 39.8 | – | -100 | Calu-3 uninfected cytotoxicity CC50 GeoMean (Calu-3 cells [5]; human): > 0.6084 µM; uninfected Calu-3 CC50 [μM] (Calu-3 cells [5]; human): > 0.608 ×÷ 246.09 (n=2) μM
